The subject of assay [1] is P388. The assay can be described thus: Ratio of 5-Fluorouracil IC50 to compound IC50 for Mus musculus (mouse) P388 cells. It is filed as functional.
Assay [2] relates to P388. The assay can be described thus: Cytotoxicity against Mus musculus (mouse) P388 cells assessed as growth inhibition after 72 hr by MTT assay. It is filed as functional, cell-based.
Assay [3] concerns HCT-116. The assay can be described thus: Cytotoxicity against Homo sapiens (human) HCT116 cells assessed as growth inhibition after 72 hr by MTT assay. It is filed as functional, cell-based.
The test system of assay [4] is Aspergillus niger. The assay can be described thus: Ratio of MFC to MIC for Aspergillus niger. Type of assay: functional.
The test system of the next assay is MCF7. Put plainly: Cytotoxicity against Homo sapiens (human) MCF7 cells assessed as growth inhibition after 72 hr by MTT assay. It is filed as functional, cell-based. In general terms: Formazan colour is commonly taken as a measure of viable cells.
The subject of assay [5] is Candida albicans. Put plainly: Ratio of MFC to MIC for Candida albicans. Type of assay: functional.
The subject of assay [6] is Escherichia coli. The assay can be described thus: Ratio of MBC to MIC for Escherichia coli. Type of assay: functional.
Assay [7] deals with Bacillus subtilis. Put plainly: Ratio of MBC to MIC for Bacillus subtilis. It is filed as functional.
Assay [8] has as its system Staphylococcus aureus. Put plainly: Ratio of MBC to MIC for Staphylococcus aureus. Type of assay: functional.
Assay [9] relates to Aspergillus niger. The assay can be described thus: Fungicidal activity against Aspergillus niger. It is filed as functional.
In assay [10] the test system is Candida albicans. The assay can be described thus: Fungicidal activity against Candida albicans. It is filed as functional.
Assay [11] deals with Escherichia coli. Put plainly: Bactericidal activity against Escherichia coli. It is filed as functional.
The test system of assay [12] is Bacillus subtilis. Put plainly: Bactericidal activity against Bacillus subtilis. Type of assay: functional.
For assay [13], the system named is Staphylococcus aureus. Put plainly: Bactericidal activity against Staphylococcus aureus. It is filed as functional.
Assay [14] deals with Aspergillus niger. The assay can be described thus: Antifungal activity against Aspergillus niger assessed as growth inhibition after 7 days by tube dilution method. Type of assay: functional.
In assay [15] the test system is Escherichia coli. The assay can be described thus: Antibacterial activity against Escherichia coli assessed as growth inhibition after 24 hr by tube dilution method. It is filed as functional.
The subject of assay [16] is Candida albicans. The assay can be described thus: Antifungal activity against Candida albicans assessed as growth inhibition after 48 hr by tube dilution method. It is filed as functional.
In assay [17] the test system is Bacillus subtilis. The assay can be described thus: Antibacterial activity against Bacillus subtilis assessed as growth inhibition after 24 hr by tube dilution method. Type of assay: functional.
Assay [18] deals with Staphylococcus aureus. The assay can be described thus: Antibacterial activity against Staphylococcus aureus assessed as growth inhibition after 24 hr by tube dilution method. Type of assay: functional.
The test system of assay [19] is HCT-116. Put plainly: Ratio of 5-Fluorouracil IC50 to compound IC50 for Homo sapiens (human) HCT116 cells. It is filed as functional.

Molecules are shown by their SMILES.

For the compound `Cc1cccc(NC(=O)c2ccc(/N=N\c3c[nH]c4ccccc34)cc2)c1`, the “Ratio IC50” value in the assay on P388 [1] is on record as 73. Further, the values for the IC50 in the assay with P388 [2], in the assay on HCT-116 [3] and in the assay with MCF7 were 0.0003 uM/ml, 0.0989 uM/ml and 0.0734 uM/ml, respectively. Also, the Ratio with Aspergillus niger [4], with Candida albicans [5], in the assay on Escherichia coli [6], in the assay on Bacillus subtilis [7] and in the assay with Staphylococcus aureus [8] was 3 throughout. The MFC with Aspergillus niger [9] and against Candida albicans [10] was 0.04 uM/ml each time. In addition, the MBC against Escherichia coli [11], against Bacillus subtilis [12] and in the assay on Staphylococcus aureus [13] was >0.14 uM/ml each time. Moreover, the “-logMIC” value came to 1.45 in the assay with Aspergillus niger [14]; 1.75 in the assay with Escherichia coli [15]; 1.45 with Candida albicans [16]; 1.75 in the assay with Bacillus subtilis [17]; 1.45 in the assay with Staphylococcus aureus [18].
With `Cc1ccc(NC(=O)c2ccc(/N=N\c3c[nH]c4ccccc34)cc2)cc1`, the “Ratio IC50” value is given as 73 in the assay on P388 [1] and 1.8 in the assay on HCT-116 [19]. Moreover, the IC50 in the assay with P388 [2] is recorded as 0.0003 uM/ml; in the assay on HCT-116 [3], 0.0254 uM/ml; in the assay with MCF7, 0.0424 uM/ml. For the same compound, the Ratio in the assay on Aspergillus niger [4], in the assay with Candida albicans [5], in the assay on Escherichia coli [6], in the assay with Bacillus subtilis [7] and in the assay with Staphylococcus aureus [8] was 3 in each case. The MFC was 0.04 uM/ml against Aspergillus niger [9] and >0.14 uM/ml against Candida albicans [10]. Besides, the MBC against Escherichia coli [11], against Bacillus subtilis [12] and against Staphylococcus aureus [13] was >0.14 uM/ml each time. The “-logMIC” value in the assay on Aspergillus niger [14], in the assay with Escherichia coli [15], in the assay with Candida albicans [16], in the assay with Bacillus subtilis [17] and in the assay with Staphylococcus aureus [18] was 1.45 each time.
Take `O=C(Nc1ccccc1F)c1ccc(/N=N\c2c[nH]c3ccccc23)cc1`: the IC50 in the assay with P388 [2] is recorded as 0.1061 uM/ml; in the assay on HCT-116 [3], 0.5587 uM/ml; in the assay with MCF7, 0.0838 uM/ml. For the same compound, the Ratio with Aspergillus niger [4], in the assay on Candida albicans [5], in the assay with Escherichia coli [6], in the assay with Bacillus subtilis [7] and in the assay on Staphylococcus aureus [8] was 3 in each case. For the same compound, the values for the MFC in the assay with Aspergillus niger [9] and in the assay with Candida albicans [10] were 0.03 uM/ml and 0.07 uM/ml, respectively. The MBC against Escherichia coli [11], in the assay on Bacillus subtilis [12] and against Staphylococcus aureus [13] was >0.14 uM/ml in each case. Moreover, the “-logMIC” value in the assay on Aspergillus niger [14], in the assay on Escherichia coli [15], with Candida albicans [16], in the assay with Bacillus subtilis [17] and in the assay on Staphylococcus aureus [18] was 1.46 in each case.
As to `O=C(Nc1ccccc1)c1ccc(/N=N\c2c[nH]c3ccccc23)cc1`, the results for the IC50 entry in the assay with P388 [2], in the assay with HCT-116 [3] and in the assay on MCF7 were “Not Active”, 0.1029 uM/ml and 0.1471 uM/ml, respectively. Further, the Ratio with Aspergillus niger [4], in the assay on Candida albicans [5], in the assay with Escherichia coli [6], in the assay on Bacillus subtilis [7] and in the assay on Staphylococcus aureus [8] was 3 in each case. Further, the MFC in the assay with Aspergillus niger [9] was 0.07 uM/ml; in the assay on Candida albicans [10], >0.15 uM/ml. Besides, the MBC against Escherichia coli [11], in the assay with Bacillus subtilis [12] and in the assay on Staphylococcus aureus [13] was >0.15 uM/ml in each case. Also, the “-logMIC” value with Aspergillus niger [14], in the assay with Escherichia coli [15], in the assay on Candida albicans [16], with Bacillus subtilis [17] and in the assay with Staphylococcus aureus [18] was 1.44 each time.
On to `O=C(Nc1cccc(Cl)c1)c1ccc(/N=N\c2c[nH]c3ccccc23)cc1`, for which the IC50 in the assay with P388 [2] was 0.2667 uM/ml; in the assay on HCT-116 [3], 0.08 uM/ml; in the assay with MCF7, 0.0827 uM/ml. In addition, the Ratio with Aspergillus niger [4], in the assay on Candida albicans [5], with Escherichia coli [6], in the assay with Bacillus subtilis [7] and with Staphylococcus aureus [8] was 3 in each case. In addition, the MFC against Aspergillus niger [9] was 0.03 uM/ml; against Candida albicans [10], >0.13 uM/ml. In addition, the MBC against Escherichia coli [11], against Bacillus subtilis [12] and against Staphylococcus aureus [13] was >0.13 uM/ml in each case. In addition, the “-logMIC” value with Aspergillus niger [14], with Escherichia coli [15], in the assay on Candida albicans [16], in the assay on Bacillus subtilis [17] and with Staphylococcus aureus [18] was 1.48 in each case.

Values taken from ChEMBL document CHEMBL3045122, “Synthesis, in vitro antimicrobial, antiproliferative, and QSAR studies of N-(substituted phenyl)-2/4-(1H-indol-3-ylazo)-benzamides” (Med Chem Res, 2013).
